Consider 28 molecules from patent publication US12583849B2, “KCNT1 inhibitors and methods of use” (Praxis Precision Medicines, Inc., priority 2020, dated 2026).

This experiment has as its target T1, KCNT1 (KNa1.1, Slack) (Homo sapiens, UniProt Q5JUK3).
T1 construct: expressed in transfected cells; host or cells: HEK-TREX (tetracycline-inducible cell line)
T1 sequence (Q5JUK3 1-1230): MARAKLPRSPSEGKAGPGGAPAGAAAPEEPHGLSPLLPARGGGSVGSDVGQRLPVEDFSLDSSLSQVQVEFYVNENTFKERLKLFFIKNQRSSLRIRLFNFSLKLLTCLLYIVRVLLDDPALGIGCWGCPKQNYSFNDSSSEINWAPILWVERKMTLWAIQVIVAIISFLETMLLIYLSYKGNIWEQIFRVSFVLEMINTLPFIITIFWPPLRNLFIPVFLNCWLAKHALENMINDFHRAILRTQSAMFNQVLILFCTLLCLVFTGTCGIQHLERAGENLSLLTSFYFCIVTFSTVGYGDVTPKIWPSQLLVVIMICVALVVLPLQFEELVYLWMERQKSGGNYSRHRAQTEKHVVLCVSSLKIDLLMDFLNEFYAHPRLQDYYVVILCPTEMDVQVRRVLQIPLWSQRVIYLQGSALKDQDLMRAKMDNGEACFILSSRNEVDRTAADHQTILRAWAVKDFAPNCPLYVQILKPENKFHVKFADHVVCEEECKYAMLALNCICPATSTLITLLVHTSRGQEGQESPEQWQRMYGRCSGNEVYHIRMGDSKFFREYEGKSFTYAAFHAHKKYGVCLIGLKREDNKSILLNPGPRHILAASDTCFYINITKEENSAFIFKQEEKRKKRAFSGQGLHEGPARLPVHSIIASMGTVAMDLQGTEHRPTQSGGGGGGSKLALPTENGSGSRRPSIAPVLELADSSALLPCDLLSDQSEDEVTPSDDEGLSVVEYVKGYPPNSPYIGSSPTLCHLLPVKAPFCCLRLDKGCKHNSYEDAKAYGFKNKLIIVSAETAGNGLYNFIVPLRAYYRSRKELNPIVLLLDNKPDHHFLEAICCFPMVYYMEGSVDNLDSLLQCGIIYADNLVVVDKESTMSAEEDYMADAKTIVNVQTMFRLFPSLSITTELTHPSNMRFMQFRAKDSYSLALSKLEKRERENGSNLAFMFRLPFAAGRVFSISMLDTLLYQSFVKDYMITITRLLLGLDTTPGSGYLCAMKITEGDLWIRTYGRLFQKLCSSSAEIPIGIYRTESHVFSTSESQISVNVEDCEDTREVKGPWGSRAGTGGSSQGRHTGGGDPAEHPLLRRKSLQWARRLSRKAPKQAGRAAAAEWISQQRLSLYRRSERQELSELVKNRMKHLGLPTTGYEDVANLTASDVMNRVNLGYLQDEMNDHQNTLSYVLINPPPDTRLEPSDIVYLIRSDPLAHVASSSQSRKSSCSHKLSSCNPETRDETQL
In words: KCNT1-WT-Basal Patch Clamp Assay. It is filed as cell-based. The note with it: tetracycline inducible cell line (HEK-TREX); SyncroPatch 384PE automated patch clamp, perforated patch mode, room temperature, step from -80 mV to 0 mV. An outline of the steps: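 Tetracycline-inducible HEK-TREX cells expressing human KCNT1, recorded by automated perforated patch clamp (10 μM escin) at room temperature, with 4 mM external K+ at pH 7.4. Mean current taken during a 100 ms step from −80 mV to 0 mV, averaged over 3 sweeps. IC50 from Hill fit of % inhibition; otherwise % inhibition at top concentration.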
In general terms: Patch clamp records ionic current or voltage across a cell membrane.

As for `C[C@H](NC(=O)C1CCOCC1)c1nc(-c2ccnc(C(F)(F)F)c2)no1` [Compound I-12, (S)—N-(1-(3-(2-(trifluoromethyl)pyridin-4-yl)-1,2,4-oxadiazol-5-yl)ethyl)tetrahydro-2H-pyran-4-carboxamide], the IC50 is not below 20000 nM.
For the molecule `C[C@H](NC(=O)[C@@H](C)c1ccccc1)c1nc(-c2ccnc(C3CC3)c2)no1` [Compound I-64, (2S)—N-[(1S)-1-[3-(2-cyclopropyl-4-pyridyl)-1,2,4-oxadiazol-5-yl]ethyl]-2-phenyl-propanamide], the IC50 was not above 1000 nM.
The molecule `CC(C)Oc1cc(-c2noc([C@H](C)NC(=O)N3CCCc4ccccc43)n2)ccn1` [II-3] yielded an IC50 not above 1000 nM.
In the case of `C[C@H](NC(=O)c1cccc(C(=O)N(C)C)c1)c1nc(-c2ccnc(C3CC3)c2)no1` [Compound I-90, (S)—N1-(1-(3-(2-cyclopropylpyridin-4-yl)-1,2,4-oxadiazol-5-yl)ethyl)-N3,N3-dimethylisophthalamide], the half-maximal inhibitory concentration (IC50) was in the range of 1000 to 20000 nM.
The result for `C[C@H](NC(=O)c1cc(F)cc(F)c1)c1nc(-c2ccnc(C3CC3)c2)no1` [Compound I-102, (S)—N-(1-(3-(2-cyclopropylpyridin-4-yl)-1,2,4-oxadiazol-5-yl)ethyl)-3,5-difluorobenzamide] reads not above 1000 nM; that for `C[C@H](NC(=O)C1CCCC1)c1nc(-c2ccnc(C3CC3)c2)no1` [Compound I-105, (S)—N-(1-(3-(2-cyclopropylpyridin-4-yl)-1,2,4-oxadiazol-5-yl)ethyl)cyclopentanecarboxamide], not above 1000 nM.
As for `C[C@H](NC(=O)N(C)C(C)(C)C)c1nc(-c2ccnc(C3CC3)c2)no1` [II-9], the IC50 is not above 1000 nM.
On to `C[C@H](NC(=O)c1ccc(C(F)(F)F)cn1)c1nc(-c2ccnc(C(F)(F)F)c2)no1` [Compound I-1, (S)-5-(trifluoromethyl)-N-(1-(3-(2-(trifluoromethyl)pyridin-4-yl)-1,2,4-oxadiazol-5-yl)ethyl)picolinamide], for which the IC50 lay within 1000 to 20000 nM.
Under `C[C@H](NC(=O)c1cccc(Cl)c1)c1nc(-c2ccnc(C3CCC3)c2)no1` [Compound I-100, (S)-3-chloro-N-(1-(3-(2-cyclobutylpyridin-4-yl)-1,2,4-oxadiazol-5-yl)ethyl) benzamide] stands not above 1000 nM; under `C[C@H](NC(=O)C1CC2(CCC2)C1)c1nc(-c2ccnc(C(F)(F)F)c2)no1` [Compound I-76, N-[(1S)-1-[3-[2-(trifluoromethyl)-4-pyridyl]-1,2,4-oxadiazol-5-yl]ethyl]spiro[3.3]heptane-2-carboxamide], not above 1000 nM; under `Cc1ccccc1C(=O)N[C@@H](C)c1nc(-c2ccnc(C3CC3)c2)no1` [Compound I-83, N-[(1S)-1-[3-(2-cyclopropyl-4-pyridyl)-1,2,4-oxadiazol-5-yl]ethyl]-2-methyl-benzamide], not above 1000 nM.
Consider `CC(C)Oc1cc(-c2noc([C@H](C)NC(=O)N(C)C(C)(C)C)n2)ccn1` [II-5], for which the concentration for half-maximal inhibition (IC50) was not above 1000 nM.
Under `C[C@H](NC(=O)C1CCC(F)(F)CC1)c1nc(-c2ccnc(C(F)(F)F)c2)no1` [Compound I-3, (S)-4,4-difluoro-N-(1-(3-(2-(trifluoromethyl)pyridin-4-yl)-1,2,4-oxadiazol-5-yl)ethyl)cyclohexane-1-carboxamide] stands not above 1000 nM; under `C[C@H](NC(=O)c1ccc(S(C)(=O)=O)s1)c1nc(-c2ccnc(C3CC3)c2)no1` [Compound I-70, (S)—N-(1-(3-(2-cyclopropylpyridin-4-yl)-1,2,4-oxadiazol-5-yl)ethyl)-5-(methylsulfonyl)thiophene-2-carboxamide], not above 1000 nM; under `CCS(=O)(=O)c1ccc(C(=O)N[C@@H](C)c2nc(-c3ccnc(C4CC4)c3)no2)s1` [Compound I-93, (S)—N-(1-(3-(2-cyclopropylpyridin-4-yl)-1,2,4-oxadiazol-5-yl)ethyl)-5-(ethylsulfonyl)thiophene-2-carboxamide], not above 1000 nM.
Take `C[C@H](NC(=O)c1cccc(C#N)c1)c1nc(-c2ccnc(C3CC3)c2)no1` [Compound I-88, (S)-3-cyano-N-(1-(3-(2-cyclopropylpyridin-4-yl)-1,2,4-oxadiazol-5-yl)ethyl)benzamide]: the IC50 is not above 1000 nM.
`C[C@H](NC(=O)c1cc2ccc(C(F)(F)F)cc2s1)c1nc(-c2ccnc(C(F)(F)F)c2)no1` [Compound I-25, (S)-6-(trifluoromethyl)-N-(1-(3-(2-(trifluoromethyl)pyridin-4-yl)-1,2,4-oxadiazol-5-yl)ethyl)benzo[b]thiophene-2-carboxamide] displayed an IC50 not above 1000 nM.
Under `C[C@H](NC(=O)c1ccc(Cl)cc1Cl)c1nc(-c2ccnc(C3CC3)c2)no1` [Compound I-94, (S)-2,4-dichloro-N-(1-(3-(2-cyclopropylpyridin-4-yl)-1,2,4-oxadiazol-5-yl)ethyl)benzamide] stands not above 1000 nM.
In turn, `C[C@H](NC(=O)[C@H](C)c1ccccc1)c1nc(-c2ccnc(C(F)(F)F)c2)no1` [Compound I-17, (R)-2-phenyl-N—((S)-1-(3-(2-(trifluoromethyl)pyridin-4-yl)-1,2,4-oxadiazol-5-yl)ethyl)propanamide] registered an IC50 not above 1000 nM.
As to `C[C@H](NC(=O)C12CC(C)(C1)C2)c1nc(-c2ccnc(C(F)(F)F)c2)no1` [Compound I-72, 3-methyl-N-[(1S)-1-[3-[2-(trifluoromethyl)-4-pyridyl]-1,2,4-oxadiazol-5-yl]ethyl]bicyclo[1.1.1]pentane-1-carboxamide], the IC50 was in the range of 1000 to 20000 nM.
The result for `C[C@H](NC(=O)CN(C)c1ccccc1)c1nc(-c2ccnc(C(F)(F)F)c2)no1` [III-4, (S)-2-(methyl(phenyl)amino)-N-(1-(3-(2-(trifluoromethyl)pyridin-4-yl)-1,2,4-oxadiazol-5-yl)ethyl)acetamide] reads not above 1000 nM; that for `C[C@H](NC(=O)c1ccnc(C(F)(F)F)c1)c1nc(-c2ccnc(C3CC3)c2)no1` [Compound I-96, (S)—N-(1-(3-(2-cyclopropylpyridin-4-yl)-1,2,4-oxadiazol-5-yl)ethyl)-2-(trifluoromethyl)isonicotinamide], not above 1000 nM; that for `Cc1ncc(C(=O)NC(C)c2nc(-c3cccc(F)c3)no2)c(C)n1` (stereo not shown) [Compound I-48, N-[1-[3-(3-fluorophenyl)-1,2,4-oxadiazol-5-yl]ethyl]-2,4-dimethyl-pyrimidine-5-carboxamide], not below 20000 nM.
Under `C[C@H](NC(=O)[C@H]1CCCC(=O)N1)c1nc(-c2ccnc(C(F)(F)F)c2)no1` [Compound I-34, (R)-6-oxo-N—((S)-1-(3-(2-(trifluoromethyl)pyridin-4-yl)-1,2,4-oxadiazol-5-yl)ethyl)piperidine-2-carboxamide] stands not below 20000 nM; under `C[C@H](NC(=O)c1ccc(S(=O)(=O)C2CC2)s1)c1nc(-c2ccnc(C3CC3)c2)no1` [Compound I-97, (S)—N-(1-(3-(2-cyclopropylpyridin-4-yl)-1,2,4-oxadiazol-5-yl)ethyl)-5-(cyclopropylsulfonyl)thiophene-2-carboxamide], not above 1000 nM; under `CC[C@H](NC(=O)C1CCCCC1)c1nc(-c2ccnc(C(F)(F)F)c2)no1` [Compound I-20, (S)—N-(1-(3-(2-(trifluoromethyl)pyridin-4-yl)-1,2,4-oxadiazol-5-yl)propyl)cyclohexanecarboxamide], not above 1000 nM.
Under `C[C@H](NC(=O)c1cccc(C(F)(F)F)c1)c1nc(-c2ccnc(C3CC3)c2)no1` [Compound I-95, (S)—N-(1-(3-(2-cyclopropylpyridin-4-yl)-1,2,4-oxadiazol-5-yl)ethyl)-3-(trifluoromethyl)benzamide] stands not above 1000 nM.
Take `C[C@H](NC(=O)c1cccc(C(N)=O)c1)c1nc(-c2ccnc(C3CC3)c2)no1` [Compound I-91, (S)—N-(1-(3-(2-cyclopropylpyridin-4-yl)-1,2,4-oxadiazol-5-yl)ethyl) isophthalamide]: the IC50 was in the range of 1000 to 20000 nM.

As a reminder, the IC50 is the point on the concentration scale where inhibition reaches its midpoint.
